# In publication PMC10781097, “Chemical Profile and Health-Promoting Activities of Crataegus laciniata (Rosaceae) Flowers” (Plants, 2023):
# Columns and labels:
# zebrafish embryos = test: Zebrafish embryo pigmentation (whitening effect); type: in vivo, Danio rerio; conditions: 30 µg/mL, 72 hpf, control = 100% pigmentation
# Description: Adult zebrafish specimens (male and female) were maintained in a temperature-controlled aquarium (28.5 °C) with light-dark cycles and regularly fed with Artemia salina larvae. After natural deposition, the laid eggs were collected and incubated at 28.5 °C. After 24 h, all the eggs were observed under a stereomicroscope (SMZ-171 Series, Motic, Hong Kong, China) to select the fertilized ones. The vitality test and whitening effect were evaluated in vivo on zebrafish embryos according to the following method. […] Control embryos were incubated with embryo water (negative control). After 48 h of incubation at 28 °C (72 hpf), the effects of the treatment were observed using a stereomicroscope (SMZ-171 Series, Motic) equipped with a digital camera (Moticam® 5 plus) for image acquisition. The abnormal phenotypes and mortality of each treated group were documented. […] The images were converted to gray scale, and the pixel measurements analyzer program was used to count the area of the zebrafish image pigmentation. The quantification of pigmentation was expressed as a percentage change compared to the control group, which was considered to be 100%. All experiments were performed in compliance with the European Directive 2010/63/EU and following the ethical guidelines described by the National Institute of Health Guide for the Care and Use of Laboratory Animals.
# [1] = DPPH radical scavenging activity; conditions: mean ± SD, n = 3
# Description: DPPH scavenging activity was measured using the method of Xiong et al., albeit with minor modifications. […] After shaking, the mixture was stored in the dark for 30 min at room temperature, and, finally, the absorbance was measured at 517 nm. Ascorbic acid served as the positive control. The percentage of DPPH scavenging activity was calculated using the following formula: Inhibition(%)=(C-S)/C∗100 where C = the absorbance of the control, and S = the absorbance of the extract.
# [2] = TEAC test (ABTS radical scavenging activity); conditions: mean ± SD, n = 3
# Description: The free radical scavenging activities of extracts were also determined via the TEAC test using ABTS radical following the method reported by Wang et al.. […] Trolox was used as a positive control. The percentage of ABTS free radical scavenging activity was calculated using the following formula: Inhibition(%)=(C−S)/C∗100 Data were expressed in terms of the decrease in ABTS scavenging activity by 50%.
# TYR = tested on: TYR; parameters: method as in PMID 30458808, PMID 26059994; conditions: cited from earlier work
# α-amylase = tested on: α-amylase; parameters: method as in PMID 36115306; conditions: cited from earlier work
# α-glucosidase = conditions: cited from earlier work
smiles,measurement,setting,value
"NC(=S)Nc1ccccc1 [1-Phenyl-2-thiourea (PTU), 1-Phenyl-2-thiourea]","embryo pigmentation, % vs. control",zebrafish embryos,36.00%
O=C1O[C@H]([C@@H](O)CO)C(O)=C1O [Ascorbic acid],DPPH (IC50 µg/mL),[1],16.95 ± 1.20 µg/mL
Cc1c(C)c2c(c(C)c1O)CCC(C)(C(=O)O)O2 (stereo not shown) [Trolox],TEAC (IC50 µg/mL),[2],13.08 ± 0.02 µg/mL
"O=c1c(O[C@@H]2O[C@H](CO)[C@H](O)[C@H](O)[C@H]2O)c(-c2ccc(O)c(O)c2)oc2cc(O)cc(O)c12 [hyperoside, Hyperoside]",TYR inhibition,TYR,effective TYR inhibitors
same,manner of α-amylase inhibition,α-amylase,competitive
"O=c1cc(-c2ccc(O)cc2)oc2c([C@@H]3O[C@H](CO)[C@@H](O)[C@H](O)[C@H]3O)c(O)cc(O)c12 [vitexin, Vitexin]",TYR inhibition,TYR,effective TYR inhibitors
same,mechanism of action on α-glucosidase,α-glucosidase,uncompetitive
